Test results reported in publication PMC10547880, “Synthesis and biological evaluation of novel 1,2,3-triazole hybrids of cabotegravir: identification of potent antitumor activity against lung cancer” (Frontiers in Pharmacology, 2023).
Entries after “also recorded” stand apart in the source; their conditions may differ.

Experiments:
Format in all cases: cell-based, Human
H460 cells [1] = experiment: CCK8 cell viability and IC50 measurement, H460
Method: (§1) Human lung cancer cell line H460 and H1299, human liver normal cell line LO2 were bought from ATCC. DMEM or RPMI 1640 was used as the cell culture medium with 10% FBS and 1% penicillin/streptomycin. Cells were maintained in an incubator with 37°C humidified atmosphere and 5% CO2.
(§2) Cell viability and IC50 values were determined using the CCK8 assay kit. Cells were seeded at a density of 5 × 10^3 cells per well in a 96-well plate. After overnight adhesion, 25 μM of compounds or vehicle control DMSO which all dissolved in the culture medium were added to cells and cultured for 48 h or 72 h. CCK8 reagent, dissolved in the medium, was then added to cells and incubated for 1 h. The absorbance at 450 nm was measured using a microplate spectrophotometer (Thermo). Cell viability was calculated, with the untreated group taken as 100%. For IC50 values determination, different concentrations (0, 0.4 μM, 2 μM, 10 μM, 20 μM, 50 μM) of compounds were added to cells for 72 h. Subsequent CCK8 measurement allowed the calculation of inhibition percentage based on cell viability. The IC50 values were computed by the prism statistical software. The CCK-8 assay was conducted three times and the repetitions in each time were at least three. All the values were expressed as Mean ± SD, p < 0.05 was considered statistically significant.
(§3) In order to assess the potential cytotoxicity of the synthesized compounds, we selected two types of human non-small-cell lung cancer cell line, H460 and H1299. Cell viability and cytotoxicity were evaluated using the CCK8 assay ([Xu et al., 2018]). The cells were treated with 25 μM of compounds 5a-5s and 6a-6i for 48h and 72 h. […] In contrast, no compounds managed to reduce H1299 cell viability to less than 50%, yet compounds 5i, 5m, 6h and 6i achieved cell viability rates below 70%. […] It is worth noting that minimal effects on the cell viability of the normal cell line LO2 were observed when exposed to these compounds. Further, we determined the half-maximal inhibitory concentration (IC50) of selected compounds against H460 cells, the results of which were summarized in Table 3.

LO2 cells = experiment: CCK8 cell viability, normal cell line LO2; conditions: LO2 normal liver cells, 25 μM, 72 h
Method: as §1, §2, §3

H1299 cells [2] = experiment: Apoptosis assay, Annexin V-FITC/PI flow cytometry, H1299; conditions: H1299, 72 h
Method: (§4) Cells with a density of 3 × 10^5 cells per well were seeded in 6-well plates. After overnight adhesion, cells were treated with different concentrations of compounds for 72 h. Cells were harvested and stained with Annexin V-FITC and propidium iodide. Apoptotic ratio was quantified using the flow cytometry (BD Biosciences) and analyzed using the FlowJo software v10. Values were expressed as Mean ± SD, p < 0.05 was considered statistically significant. Data were performed using Graph Prim 7.0.
(§5) Apoptosis is a programmed-controlled process of cell self-destruction, and increased cell apoptosis can lead to cell death ([Wang et al., 2023]). To explore the preliminary molecular mechanisms of the synthesized compounds action, the apoptotic activity of compound 5i was evaluated by comparing the percentage of apoptotic cells with untreated cells using flow cytometry after staining with Annexin V-FITC and PI ([Chen et al., 2022a]). This assay facilitates the detection of necrotic cells (Q1, AV-/PI+), late apoptotic cells (Q2, AV+/PI+), early apoptotic cells (Q3, AV+/PI-), and live cells (Q4, AV-/PI-). H460 and H1299 cells were treated with different doses of compound 5i for 72h, and cells were collected, stained, and analyzed. The proportion of early and late apoptotic cells was added and their ratio relative to the total cells was calculated.

H460 cells [3] = experiment: Apoptosis assay, Annexin V-FITC/PI flow cytometry, H460; conditions: H460, 2, 4 and 8 μM, 72 h
Method: as §4, §5

H1299 cells [4] = experiment: Western blot of protein expression, H1299; conditions: H1299, 2, 4, 8 μM, 72 h
Method: Western blot was used to analyze protein expressions. Cells were cultured in 12-well plates and treated with different concentrations (0, 2, 4, 8 μM) of compounds for 72 h. Cell proteins were extracted using RIPA buffer with protease/phosphatase inhibitor cocktail (CST). 10%–15% sodium dodecyl sulfate polyacrylamide gel electrophoresis was used to separate proteins and nitrocellulose membranes (Millipore) was used to collected proteins. Antibodies used in western bolt were LC3 (3868s, CST), caspase 3 (9662s, CST), cyclin D (2922s, CST), cyclin E (20808s, CST), β-Catenin (9562s, CST), γH2AX (9718s, CST), PARP (46D11, CST), and β-actin (4967s, CST). Values were expressed as Mean ± SEM, p < 0.05 was considered statistically significant. Data were performed using Graph Prim 7.0.
Western blot analysis was performed to assess the protein expressions involved in cell growth and cell death processes. H460 and H1299 cells were treated with different concentrations of compound 5i, and whole cell proteins were collected for analysis. […] Autophagy has both tumor suppression and growth promotion effects in cancers, depending on the cellular context and cancer stage. On the one hand, autophagy inhibits cancer development via eliminating dysfunctional proteins and damaged mitochondria. On the other hand, autophagy can promote tumor growth by providing recycled metabolites to support cancer cell survival and growth ([Wang et al., 2023]). […] But in H1299 cells, compound 5i exerted its anticancer ability by suppressing cell division and proliferation.

H1299 cells [5] = experiment: Live/dead cell staining (Calcein-AM/PI), H1299; conditions: H1299, 5, 10, 20 μM, 24 h
Method: Cells with a density of 5 × 10^3 cells per well were seeded in a 96-well plate. After overnight incubation, cells were treated with different concentrations (0, 5 μM, 10 μM, 20 μM) of compounds for 24 h. The LIVE/DEAD Assay Kit was used to dye cells, and cells were observed and photographed under a fluorescent microscope. Live and Dead cell numbers were counted and the ratio of dead to living cells were calculated. Values were expressed as Mean ± SEM, p < 0.05 was considered statistically significant. Data were performed using Graph Prim 7.0.
To assess the anti-proliferative effects of compound 5i, live/dead cell staining was performed using Calcein Acetoxymethyl Ester (Calcein-AM) and Propidium Iodide (PI) dyes ([Xie et al., 2023]). Calcein-AM highlights live cells through green fluorescence emission, while PI identifies dead cells with damaged membrane integrity, producing red fluorescence. H460 and H1299 cells were treated with different concentrations (0, 5, 10 and 20 μM) of compound 5i for 24 h. After 24 h treatment, cells were stained with Calcein-AM and PI, diluted in cultured medium, and incubated for an hour in dark. Then the fluorescence was detected and photographed using a fluorescent microscope. […] In addition, we also performed plate clone formation assay ([Xu et al., 2018]) to further investigate the anti-proliferation ability of compound 5i. […]

COc1c2n(cc(C(=O)Nc3cccc(-c4cn(-c5ccccc5OC(F)(F)F)nn4)c3)c1=O)CC1OCC(C)N1C2=O (stereo not shown) [Compound 5i]
cell proliferation inhibition rate (H460 cells [1]; H460, 72-h treatment): exceed 50%
IC50 (H460 cells [1]; H460, 72 h, CCK8): 6.06 ± 1.8 µM
Cell viability (LO2 cells): 99.80%
apoptotic cells (early + late) (H1299 cells [2]): no significant change or even a decrease
apoptotic cells (early + late) (H460 cells [3]): significant increase in apoptotic cells
Cyclin D level (H1299 cells [4]): decrease
Cyclin E level (H1299 cells [4]): decrease
LC3 expression (H1299 cells [4]): no significant differences
PARP expression (H1299 cells [4]): remained unaffected
caspase3 expression (H1299 cells [4]): no significant differences
β-catenin expression (H1299 cells [4]): remained unaltered
γ-H2AX expression (H1299 cells [4]): pronounced elevation; also recorded: increased expression
live and dead cell numbers (H1299 cells [5]): decrease in live cell numbers alongside a substantial rise in dead cells
